Holding throughout (experiment): growth of human tumour cells (NCI), 48 h
For experiment [1], the system named is A498 renal.
The test system of experiment [2] is CAKI-1 renal.
Experiment [3] deals with DU-145 prostate.
For experiment [4], the system named is EKVX NSCLC.
Experiment [5] has as its system HS 578T breast.
Experiment [6] deals with KM12 colon.
The test system of experiment [7] is NCI-H226 lung.
Experiment [8] concerns SF-539 CNS.
The test system of experiment [9] is SK-MEL-2 melanoma.
In experiment [10] the test system is UACC-257 melanoma.

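Exposure lasted 48 hours, with cells grown in 96-well plates and compounds tested at five concentrations. Abbreviation: GI50, concentration required for 50% inhibition of growth. TGI marks complete inhibition of growth.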

For `COc1cccc2c(=O)c3c(sc12)c(N1CCNCC1)nc1ccccc13`, the GI50 is 1.69 µM in experiment [1]; 1.64 µM in experiment [2]; 1.72 µM in experiment [3]; 1.62 µM in [4]; 1.7 µM in experiment [5]; 1.79 µM in experiment [6]. Further, the GI50 in experiment [7] was 1.58 µM; in experiment [8], 1.75 µM; in experiment [9] it was 1.94 µM; in experiment [10], 2.09 µM. The TGI was determined as 3.14 µM in experiment [1]; 3.01 µM in [2]; 3.19 µM in experiment [3]; 3.17 µM in experiment [4]; 3.71 µM in experiment [5]; 3.41 µM in experiment [6]. The TGI amounted to 3.18 µM in experiment [7], 3.21 µM in [8], 3.88 µM in experiment [9] and 4.45 µM in [10].
As to `Cc1ccc2[nH]c(O)c(N=Nc3ccc(S(N)(=O)=O)cc3)c2c1`, the GI50 in experiment [1] is greater than 25 µM; in [2], 17.8 µM; in experiment [3], 9.46 µM; in [4], greater than 25 µM; in experiment [5] it was 8.24 µM; in experiment [6], 4.17 µM. In addition, the GI50 in [7] is 7.92 µM; in experiment [8], 8.73 µM; in experiment [9], greater than 25 µM; in [10] it was greater than 25 µM. Moreover, the TGI in [1], in experiment [2], in experiment [3], in [4], in experiment [5] and in experiment [6] was greater than 25 µM each time. Besides, the TGI in experiment [7], in [8], in [9] and in experiment [10] was greater than 25 µM in each case.
Take `CCn1c(-c2ccc(OC(C)=O)cc2)c(C)c2cc(OC(C)=O)ccc21`: the TGI in experiment [1] is 70.4 µM; in experiment [2], greater than 100 µM; in experiment [3], 43.3 µM; in [4], 71.4 µM; in [5], 54.4 µM; in [6], 36.8 µM. Further, the TGI in experiment [7] was greater than 100 µM; in [8], 43.5 µM; in experiment [9], 37.2 µM; in [10], 94.9 µM.
For `Nc1nc(F)nc2c1ncn2C1OC(CO)C(O)C1O` (stereo unspecified), the GI50 in experiment [1] was greater than 100 µM; in experiment [2] it was 6.25 µM; in experiment [3], 19.7 µM. The TGI was greater than 100 µM in experiment [1]; greater than 96.2 µM in experiment [2]; greater than 100 µM in experiment [3]; greater than 100 µM in [4]; greater than 100 µM in [5]; greater than 100 µM in experiment [6]. Moreover, the TGI in [7], in experiment [8], in experiment [9] and in experiment [10] was greater than 100 µM each time.
With `CC1=C(O)C(=O)C=C2C1=CC=C1[C@@]2(C)CC[C@@]2(C)[C@@H]3C[C@](C)(C(=O)O)CC[C@]3(C)CC[C@]12C`, the TGI was found to be 0.142 µM in experiment [1]; 0.0375 µM in [2]; 0.202 µM in experiment [3]; 0.174 µM in experiment [4]; 3.7 µM in experiment [5]; 0.412 µM in experiment [6]. Besides, the TGI in experiment [7] amounted to 0.366 µM; in experiment [8], 0.331 µM; in experiment [9] it was 0.219 µM; in experiment [10], 0.1 µM.
Consider `Clc1ccc(C=Nc2ccc3c(c2)Cc2ccccc2-3)c(Cl)c1`, for which the TGI in [1], in experiment [2], in experiment [3], in experiment [4], in experiment [5] and in experiment [6] was greater than 100 µM in each case. The TGI in experiment [7], in experiment [8], in experiment [9] and in experiment [10] was greater than 100 µM throughout.
Turning to `Br[C](Br)(Br)[Hg][c]1ccccc1`, the GI50 in [1] was 16.2 µM; in experiment [2], 15.2 µM; in experiment [3] it was 18.1 µM; in experiment [4] it was 22 µM; in experiment [5], 23.2 µM; in [6], 15.6 µM. Moreover, the GI50 in experiment [7] was 16.8 µM; in experiment [8], 18 µM; in experiment [9] it was 17.8 µM; in experiment [10] it was 13.5 µM. Moreover, the TGI stood at 30 µM in [1]; 29.8 µM in [2]; 35 µM in experiment [3]; 37.7 µM in experiment [4]; 66.2 µM in experiment [5]; 29.4 µM in experiment [6]. Further, the TGI is 35.8 µM in [7], 33.7 µM in experiment [8], 32 µM in experiment [9] and 26.7 µM in [10].
As for `CCOc1cc(C(C)(C)C)ccc1C1=N[C@@](C)(c2ccc(Cl)cc2)[C@@](C)(c2ccc(Cl)cc2)N1C(=O)N1CCN(CCCS(C)(=O)=O)CC1`, the GI50 was 1.64 µM in [1]; 0.214 µM in experiment [2]; 11 µM in experiment [3]; 4.3 µM in experiment [4]; 9.26 µM in [5]; 11.4 µM in experiment [6]. Moreover, the GI50 was 0.462 µM in experiment [7], 5.12 µM in experiment [8], 9.14 µM in experiment [9] and 2.02 µM in experiment [10]. The TGI in experiment [1] stood at 9.46 µM; in experiment [2], 5.15 µM; in [3], 25.6 µM; in experiment [4], 23.7 µM; in [5], 35.2 µM; in [6], 28 µM. Besides, the TGI in [7] was 2.11 µM; in [8], 16.9 µM; in experiment [9], 30 µM; in [10] it was 15.8 µM.
For the compound `CCCCCCCCCCCCCCCCCCOc1ccccc1CC(=O)OCC[N+]1(C)CCCC1`, the GI50 in experiment [1] was 2.18 µM; in experiment [2] it was 1.6 µM; in [3], 2.21 µM; in experiment [4], 3.38 µM; in [5], 2.41 µM; in experiment [6], 1.88 µM. For the same compound, the GI50 was 2.2 µM in experiment [7], 1.86 µM in experiment [8] and 2.82 µM in experiment [10]. Moreover, the TGI in [1] was 8.82 µM; in [2], 4.05 µM; in experiment [3], 5.29 µM; in experiment [4], 16.4 µM; in [5], 7.01 µM; in experiment [6], 3.49 µM. For the same compound, the values for the TGI in experiment [7], in [8] and in [10] were 6.09 µM, 3.62 µM and 9.12 µM, respectively.

Source of the values: PubChem BioAssay (NCI).
